According to patent publication US4713369A, “Oligopeptidylargininol derivatives and their homologs, a process for their preparation, their use and agents containing them” (Behringwerke Aktiengellschaft, priority 1985, dated 1987):
Read-outs that look alike come from different tables or passages of the source. Values belong to the compound of their own block, whether it stands above or below them.

Assays:
[1] = molecular target: human α-thrombin (Homo sapiens, UniProt P00734)
Method: Test procedure: 700 μl of tris buffer, pH 8.2, are incubated with 100 μl of human α-thrombin (0.28 UI) and 100 μl of inhibitor solution at 37° C. for 5 min. After addition of 100 μl of Tos-Gly-Pip-Arg paranitroanilide (c×3 mMol/l), the extinction at 405 nm is measured.

[2] = molecular target: plasmin (Homo sapiens, UniProt P00747); assay: Inhibitory action against plasmin, analogous procedure (substrate D-norvalylcyclohexylalanylarginyl paranitroanilide); format: biochemical; conditions: final inhibitor concentration 0.6 mmol/1
From the text: (plasmin substrate: D-norvalylcyclohexylalanylarginyl paranitroanilide (c=3 mmol/l)).

[3] = molecular target: F Xa (Homo sapiens, UniProt P00742); assay: Inhibitory action against F Xa, analogous procedure (substrate Bzl-Ile-Glu-Gly-Arg pNA); format: biochemical; conditions: final inhibitor concentration 0.6 mmol/1
From the text: F Xa substrate: Bzl-Ile-Glu-Gly-Arg pNA (50% of the Glu as the methyl ester) (c=3 mmol/liter)

[4] = tested on: spermatozoal endoprotease acrosin; conditions: results of Borin et al., Hoppe-Seyler's Z. Physiol. Chem. 362, 1435-1445, 1981; cited from earlier work

Sequence of plasmin (P00747 581-810 limits assumed, species assumed): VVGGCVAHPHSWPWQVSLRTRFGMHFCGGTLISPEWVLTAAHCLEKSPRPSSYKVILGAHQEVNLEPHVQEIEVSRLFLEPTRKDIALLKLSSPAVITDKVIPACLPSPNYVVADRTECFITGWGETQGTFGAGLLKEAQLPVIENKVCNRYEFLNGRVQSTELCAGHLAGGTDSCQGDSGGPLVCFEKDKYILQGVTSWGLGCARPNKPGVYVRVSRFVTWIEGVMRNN
Sequence of plasmin (P00747 97-580 partner limits assumed, species assumed): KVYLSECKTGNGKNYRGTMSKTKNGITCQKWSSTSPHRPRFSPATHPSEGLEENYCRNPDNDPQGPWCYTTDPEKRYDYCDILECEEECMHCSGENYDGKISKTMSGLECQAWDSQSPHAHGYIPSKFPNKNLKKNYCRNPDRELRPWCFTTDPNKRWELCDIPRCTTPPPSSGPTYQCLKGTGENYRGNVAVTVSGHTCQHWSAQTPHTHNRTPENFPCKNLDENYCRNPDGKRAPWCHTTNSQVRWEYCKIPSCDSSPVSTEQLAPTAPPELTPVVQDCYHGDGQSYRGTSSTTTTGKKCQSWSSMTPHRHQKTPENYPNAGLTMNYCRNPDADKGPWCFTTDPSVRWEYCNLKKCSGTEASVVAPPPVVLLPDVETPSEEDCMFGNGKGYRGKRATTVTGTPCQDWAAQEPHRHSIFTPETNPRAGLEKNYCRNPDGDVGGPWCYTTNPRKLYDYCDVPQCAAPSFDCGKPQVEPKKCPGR
Sequence of F Xa (P00742 235-488 limits assumed): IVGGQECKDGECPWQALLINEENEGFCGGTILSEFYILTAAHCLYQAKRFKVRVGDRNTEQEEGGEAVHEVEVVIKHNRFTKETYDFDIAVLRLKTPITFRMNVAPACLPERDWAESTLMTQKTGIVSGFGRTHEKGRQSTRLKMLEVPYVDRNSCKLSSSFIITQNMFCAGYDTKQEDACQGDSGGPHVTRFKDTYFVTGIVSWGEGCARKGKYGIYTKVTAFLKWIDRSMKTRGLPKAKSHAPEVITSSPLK
Sequence of F Xa (P00742 41-179 partner limits assumed): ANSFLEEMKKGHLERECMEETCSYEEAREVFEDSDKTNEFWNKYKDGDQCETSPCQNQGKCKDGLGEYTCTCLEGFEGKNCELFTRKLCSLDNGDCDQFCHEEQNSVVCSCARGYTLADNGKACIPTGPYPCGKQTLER

SMILES: Cl.Cl.NC(N)=NCCC[C@@H](COC(=O)c1ccc([N+](=O)[O-])cc1)NC(=O)[C@@H]1CCCN1C(=O)[C@H](N)Cc1ccccc1 [D-Phe-Pro-argininol-4-nitrobenzoate dihydrochloride]
inhibitory action on thrombin (in words) [1]: approximately corresponded to that of 4-carboxyethylphenylε-guanidinocaproate

SMILES: N=C(N)NCCCCCC(=O)Oc1ccc(CCC(=O)O)cc1 [4-carboxyethylphenyl ε-guanidinocaproate, reference compound]
IC50 [1]: 3.65 ± 0.05 µM

SMILES: CC(=O)O.CC(C)C[C@H](NC(=O)OC(C)(C)C)C(=O)N[C@@H](CC(C)C)C(=O)N[C@H](C=O)CCCNC(=N)N.O [Boc-Leu-Leu-argininal . acetic acid . H2 O]
inhibition of acrosin (in words) [4]: very active inhibitor

Next, values leading:

action in the thrombin inhibition test, times less than that of H-D-Phe-Pro-Arg CH2 --OH ([1]; relative to H-D-Phe-Pro-Arg CH2 --OH): about 1,000 times
SMILES: CC(C)(C)OC(=O)N[C@H](Cc1ccccc1)C(=O)N1CCC[C@H]1C(=O)N[C@H](CO)CCCNC(=N)N [Boc-D-Phe-Pro-Arg CH2 --OH]

Plasmin inhibition [2]: 67 % inhibition
inhibitory action on thrombin (in words) [1]: potent inhibition of thrombin
inhibitory action on thrombin (in words) ([1]; listed as D-phenylalanyl-L-prolyl-L-argininol): especially strong
F X a inhibition [3]: 49 % inhibition
SMILES: N=C(N)NCCC[C@@H](CO)NC(=O)[C@@H]1CCCN1C(=O)[C@H](N)Cc1ccccc1.O=C(O)C(F)(F)F.O=C(O)C(F)(F)F [D-Phe-Pro-argininol ditrifluoroacetate, D-Phe-Pro-Arg-CH2 OH×2CF3 COOH]
